Consider six compounds from publication PMC9783898 (Pharmaceutics, 2022).

Where two headings read alike, the source gives them in different places. Where only a bound is given, the exact number is not on record here.

For one data set, the target named is PARP1 (Homo sapiens, UniProt P09874). In words: PARP1 inhibition activity. It counts as biochemical.
Data set [1] has as its system H9C2 (rat cardiomyocytes). The experiment in a line: Cytotoxicity assay (MTT, 48 h) on H9C2. It counts as cell-based. To be noted: read-out: H9C2, IC50.
Data set [2] deals with MES-SA (Human uterine sarcoma). In words: Cytotoxicity assay (MTT, 48 h) on MES-SA. It counts as cell-based. The method, then: Cells were cultured in modified McCoy’s 5a medium supplemented with 10% fetal bovine serum. […] After reaching approx. 90% confluence, cells were detached using 0.05% trypsin/EDTA solution and counted. Then, cells were plated at optimal density for the logarithmic phase of growth. MES-SA cells were seeded onto 96-well plate at a concentration of 3000 cells per well. Blank control wells were left cell-free for background absorption measurement. […] Control cells were incubated with media without compounds. MTT assays were performed after 48 h incubation. Briefly, culture medium was removed from each well and replaced with fresh medium with MTT (0.2 mg/mL). […] The plate was further shaken for 15 min at room temperature, and the optical density at 540 nm of the wells was measured using multichannel spectrophotometer (Thermo Scientific Multiskan EX, Waltham, MA, USA). The percent of alive cells were calculated according to the formula 100∙T/C, where T is the optical density of a test well after 48 h exposure to compound, and C is control cells optical density after 48 h. All compounds were tested in three independent experiments. The IC50 values were calculated using Graph Pad Prism (GraphPad, Inc., La Jolla, CA, USA).

Data set [3] has as its system MCF-7 (human adenocarcinoma). The experiment in a line: Cytotoxicity assay (MTT, 48 h) on MCF-7. It counts as cell-based.
For data set [4], the system named is HCC1937 (human breast carcinoma). The experiment in a line: Cytotoxicity assay (MTT, 48 h) on HCC1937. It counts as cell-based.
The test system of data set [5] is MES-SA/Dx-5 cells. In words: Reversal of doxorubicin resistance (doxorubicin cytotoxicity in presence of compound at IC20). It counts as cell-based, human. To be noted: IC50 of DOX/IC50 of DOX with a conjugate at IC20, MES-SA/Dx-5. The protocol: To calculate reversal fold (RF) values, doxorubicin cytotoxicity was determined in the presence of the tested compounds at their corresponding IC20 concentration as described above. RF values were calculated as IC50 of DOX/IC50 of DOX in the presence of a tested compound.
Next, the cytotoxicity of 5a–c was evaluated on a doxorubicin resistant human uterus sarcoma cell line (MES-SA/Dx-5) using the MTT assay (Table 2). […] To explore the potential of the novel compounds to reverse doxorubicin resistance, cytotoxicity of doxorubicin was evaluated in the presence of 5a–c at their corresponding IC20 concentrations.

In data set [6] the test system is MES-SA/Dx-5 (doxorubicin resistant human uterine sarcoma). To be noted: MES-SA/Dx-5 vs MES-SA.
The test system is the same in data set [7]. The experiment in a line: cells. To be noted: for IC20: MES-SA/Dx5, read-out: MES-SA/Dx5 IC20.
For data set [8] the test system is unchanged. Set-up: method as in doi:10.1039/D2NJ00340F. To be noted: MTT, cited from earlier work.
The test system of data set [9] is MES-SA/Dx-5 cells. Also noted: method as in doi:10.1039/D2NJ00340F. To be noted: IC50 of DOX/IC50 of DOX with compound at IC20, MES-SA/Dx-5; cited from earlier work.
The mark [10] stands for this setting: PARP1 inhibiting activity, Table 1, read-out: PARP1.
The mark [11] stands for this setting: Homo sapiens, MES-SA, read-out: MES-SA, IC50, MTT, 48 h.
The mark [12] stands for this setting: Homo sapiens, MCF7, 48 h, read-out: MCF-7, IC50, MTT, 48 h.
Where [13] appears, read: Homo sapiens, HCC1937, 48 h, read-out: HCC1937, IC50, MTT, 48 h, BRCA1-deficient breast carcinoma.
Setting [14] is: MES-SA/Dx5, read-out: MES-SA/Dx5 IC50.

PARP1, sequence (P09874 whole entry, species assumed): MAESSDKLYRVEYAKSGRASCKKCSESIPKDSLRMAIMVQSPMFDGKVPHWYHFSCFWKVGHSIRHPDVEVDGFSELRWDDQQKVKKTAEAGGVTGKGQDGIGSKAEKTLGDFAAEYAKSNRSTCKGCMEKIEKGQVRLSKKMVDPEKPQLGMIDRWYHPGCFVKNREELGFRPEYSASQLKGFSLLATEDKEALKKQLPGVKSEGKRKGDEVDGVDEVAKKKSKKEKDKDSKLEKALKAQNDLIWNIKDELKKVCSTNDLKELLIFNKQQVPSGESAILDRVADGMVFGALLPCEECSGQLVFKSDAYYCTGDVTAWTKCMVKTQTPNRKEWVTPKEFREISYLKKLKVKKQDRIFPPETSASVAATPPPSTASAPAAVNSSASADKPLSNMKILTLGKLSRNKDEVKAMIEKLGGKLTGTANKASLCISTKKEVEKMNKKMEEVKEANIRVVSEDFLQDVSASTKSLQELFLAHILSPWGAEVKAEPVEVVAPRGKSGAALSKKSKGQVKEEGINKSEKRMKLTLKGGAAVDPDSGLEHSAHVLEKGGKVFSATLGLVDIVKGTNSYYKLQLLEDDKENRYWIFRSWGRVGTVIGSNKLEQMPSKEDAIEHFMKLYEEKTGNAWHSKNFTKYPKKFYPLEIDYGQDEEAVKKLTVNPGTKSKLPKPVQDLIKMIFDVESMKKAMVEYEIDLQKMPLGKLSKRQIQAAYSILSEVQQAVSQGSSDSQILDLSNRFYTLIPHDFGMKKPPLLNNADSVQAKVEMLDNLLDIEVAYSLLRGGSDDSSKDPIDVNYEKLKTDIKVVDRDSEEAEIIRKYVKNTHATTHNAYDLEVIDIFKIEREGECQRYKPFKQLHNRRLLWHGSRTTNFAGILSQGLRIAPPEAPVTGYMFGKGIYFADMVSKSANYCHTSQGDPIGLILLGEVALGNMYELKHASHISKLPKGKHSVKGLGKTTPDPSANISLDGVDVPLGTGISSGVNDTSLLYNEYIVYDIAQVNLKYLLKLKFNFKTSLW

Compound `Cn1c(=O)c2c(Br)c(CN3CCCN(C(=O)CCCCCCCCC(=O)N4CCN(C(=O)c5cc(Cc6n[nH]c(=O)c7ccccc67)ccc5F)CC4)CC3)[se]c2c2ccccc21` [Compound 5b, 1-(4-((3-Bromo-5-methyl-4-oxo-4,5-dihydroselenopheno[3,2-c]quinolin-2-yl)methyl)-1,4-diazepan-1-yl)-10-(4-(2-fluoro-5-((4-oxo-3,4-dihydrophthalazin-1-yl)methyl)benzoyl)piperazin-1-yl)decane-1,10-dione] returned a melting point of 172 to 174 °C. For the same compound, at PARP1 (setting [10]), the IC50 worked out at 0.013 ± 0.0018 µM. Moreover, the IC50 in data set [1] (H9c2, 48 h) was greater than 300 µM. In addition, the IC50 in data set [2] (setting [11]) is 32.5 ± 1.6 µM. In [3] (setting [12]), the IC50 was greater than 100 µM. Also, the IC50 in data set [4] (setting [13]) was greater than 100 µM. The “RF (reversal fold)” value with MES-SA/Dx-5 cells [5] is on record as 3.42 ± 0.12. The “times more cytotoxic to MES-SA/Dx-5 than regular MES-SA cells” value in data set [6] is on record as roughly 20 times. The IC20 in data set [7] was 0.86 ± 0.096 µM. Further, the IC50 in [7] (setting [14]) is 1.67 ± 0.03 µM.
With `Cn1c(=O)c2c(Br)c(CN3CCCN(C(=O)CCCCCCCCCCC(=O)N4CCN(C(=O)c5cc(Cc6n[nH]c(=O)c7ccccc67)ccc5F)CC4)CC3)[se]c2c2ccccc21` [Compound 5c, 1-(4-((3-Bromo-5-methyl-4-oxo-4,5-dihydroselenopheno[3,2-c]quinolin-2-yl)methyl)-1,4-diazepan-1-yl)-12-(4-(2-fluoro-5-((4-oxo-3,4-dihydrophthalazin-1-yl)methyl)benzoyl)piperazin-1-yl)dodecane-1,12-dione], the IC50 at PARP1 (setting [10]) was 0.147 ± 0.0022 µM; at PARP1 (read-out: PARP1 IC50), 0.147 µM; in data set [1] (H9c2, 48 h) it was greater than 300 µM; in data set [2] (setting [11]), greater than 100 µM; in [3] (setting [12]), greater than 100 µM; in data set [4] (setting [13]) it was greater than 100 µM. Also, the IC50 in [7] (setting [14]) came out at 26.2 ± 0.03 µM. The “RF (reversal fold)” value in the data set with MES-SA/Dx-5 cells [5] is recorded as 3.36 ± 0.11. The IC20 in [7] was 0.549 ± 0.074 µM.
As to `COc1cccc2c1C(=O)c1c(O)c3c(c(O)c1C2=O)C[C@@](O)(C(=O)CO)C[C@@H]3O[C@H]1C[C@H](N)[C@H](O)[C@H](C)O1` [Doxorubicin, reference compound], the IC50 in data set [1] (H9c2, MTT, 48 h) was 3.9 ± 0.6 µM; in data set [2] (Homo sapiens, MES-SA, MTT, read-out: MES-SA, IC50), 0.084 ± 0.011 µM; in data set [3] (Homo sapiens, MCF7, 48 h, MTT, 48 h, read-out: MCF-7, IC50), 0.47 ± 0.14 µM; in data set [4] (Homo sapiens, HCC1937, 48 h, MTT, 48 h, BRCA1-deficient breast carcinoma, read-out: HCC1937, IC50), 1.08 ± 0.1 µM; in data set [7] (MES-SA/Dx5, read-out: Doxorubicin IC50) it was 2.4 ± 0.41 µM.
Consider `O=C(c1cc(Cc2n[nH]c(=O)c3ccccc23)ccc1F)N1CCN(C(=O)C2CC2)CC1` [Olaparib, reference compound], for which the IC50 in [2] (Homo sapiens, MES-SA, read-out: MES-SA, IC50) was greater than 100 µM; in [3] (Homo sapiens, MCF7, 48 h, read-out: MCF-7, IC50), greater than 100 µM; in data set [4] (Homo sapiens, HCC1937, 48 h, read-out: HCC1937, IC50), greater than 100 µM; in data set [7] (setting [14]), greater than 100 µM.
The compound `Cn1c(=O)c2c(Br)c(CN3CCCN(C(=O)CCC(=O)N4CCN(C(=O)c5cc(Cc6n[nH]c(=O)c7ccccc67)ccc5F)CC4)CC3)[se]c2c2ccccc21` [Compound 5a, 1-(4-((3-Bromo-5-methyl-4-oxo-4,5-dihydroselenopheno[3,2-c]quinolin-2-yl)methyl)-1,4-diazepan-1-yl)-4-(4-(2-fluoro-5-((4-oxo-3,4-dihydrophthalazin-1-yl)methyl)benzoyl)piperazin-1-yl)butane-1,4-dione] registered a melting point greater than 200 °C. Besides, on PARP1 (setting [10]), the IC50 was determined as 0.0046 ± 0.0005 µM. For the same compound, the IC50 in data set [1] (H9c2, 48 h) was greater than 300 µM. Further, the IC50 in data set [2] (setting [11]) was determined as 7.1 ± 2.7 µM. For the same compound, in data set [3] (setting [12]), the IC50 is greater than 100 µM. For the same compound, in data set [4] (setting [13]), the IC50 was 3.1 ± 1 µM. The “RF (reversal fold)” value with MES-SA/Dx-5 cells [5] amounted to 0.84 ± 0.16. In [7], the IC20 was 0.48 ± 0.094 µM. For the same compound, the IC50 in data set [7] (setting [14]) stood at 21.1 ± 3.94 µM.
Turning to `Cn1c(=O)c2c(Br)c(CN3CCCNCC3)[se]c2c2ccccc21` [Compound 1], the IC50 at PARP1 (setting [10]) was greater than 1 µM; in data set [1] (H9c2, 48 h), greater than 300 µM; in data set [2] (setting [11]) it was 17 to 21 µM; in data set [2] (read-out: MES-SA, IC50, MTT), 21 ± 3.9 µM; in [3] (setting [12]) it was 17 to 21 µM; in data set [3] (read-out: MCF-7, IC50, MTT, 48 h) it was 17.1 ± 1.9 µM. Moreover, the IC50 was 17 to 21 µM in data set [4] (setting [13]); 19.9 ± 4.8 µM in data set [4] (read-out: HCC1937, IC50, MTT, 48 h, BRCA1-deficient breast carcinoma); 21.1 ± 2.49 µM in [8] (read-out: MES-SA/Dx5 IC50). Besides, at PARP1 (at 1 µM concentration), the PARP1 activity result is recorded as “did not decrease PARP1 activity”. Also, the IC20 in [8] (read-out: MES-SA/Dx5 IC20) is 7.96 ± 3.03 µM. Moreover, in the data set with MES-SA/Dx-5 cells [9], the “RF (reversal fold)” value is 4.72 ± 0.63.
